Measurements as given in US9527838B2, “2-pyridinecarboxamide derivatives, compositions containing such compounds, and methods of treatment” (priority 2012, dated 2016).

Molecular target: Recombinant human liver glucokinase (Homo sapiens (Human), UniProt P35557)
Assay: Glucokinase activation assay (G6PDH-coupled, Thio-NADH absorbance at 405 nm)
Assay type: biochemical
Details: for EC50: 2.5 mM Glu, 30° C.
Excerpt: The glucokinase activity can, for instance, be determined without directly measuring glucose-6-phosphate by measuring the amount of Thio-NADH generated during the production of phosphogluconolactone from glucose-6-phosphate by a reporter enzyme glucose-6-phosphate dehydrogenase.
To test the exemplified compounds, the following assay was employed. Recombinant human liver glucokinase was expressed as a FLAG fusion protein in E. coli, and purified on […] M2 AFFINITY GEL (Sigma). The assay was carried out at 30° C. in a 96-well plate. In the plate was distributed 69 μl each of assay buffer (25 mM Hepes Buffer: pH=7.2, 2 mM MgCl2, 1 mM ATP, 0.5 mM TNAD, 1 mM dithiothreitol), to which was added 1 μl of a DMSO solution of the compound or DMSO as control. Then, 20 μl of pre-ice-cooled enzyme mixture (FLAG-GK, 20 U/ml G6PDH) was distributed thereto, to which was added 10 μl of 25 mM glucose as substrate to initiate the reaction (final glucose concentration=2.5 mM). After starting the reaction, the absorbance at 405 nm was measured every 30 seconds for 10 minutes to evaluate the compound based on the initial increase for 5 minutes. FLAG-GK was added so that the increase of absorbance after 5 minutes fell between 0.05 to 0.1 in the presence of 1% DMSO.
The OD values of the respective compounds were measured in the respective concentrations, wherein the OD value of DMSO as control is regarded as 100%.

Recombinant human liver glucokinase, sequence (P35557 other isoform, or with tags, fused parts or gaps): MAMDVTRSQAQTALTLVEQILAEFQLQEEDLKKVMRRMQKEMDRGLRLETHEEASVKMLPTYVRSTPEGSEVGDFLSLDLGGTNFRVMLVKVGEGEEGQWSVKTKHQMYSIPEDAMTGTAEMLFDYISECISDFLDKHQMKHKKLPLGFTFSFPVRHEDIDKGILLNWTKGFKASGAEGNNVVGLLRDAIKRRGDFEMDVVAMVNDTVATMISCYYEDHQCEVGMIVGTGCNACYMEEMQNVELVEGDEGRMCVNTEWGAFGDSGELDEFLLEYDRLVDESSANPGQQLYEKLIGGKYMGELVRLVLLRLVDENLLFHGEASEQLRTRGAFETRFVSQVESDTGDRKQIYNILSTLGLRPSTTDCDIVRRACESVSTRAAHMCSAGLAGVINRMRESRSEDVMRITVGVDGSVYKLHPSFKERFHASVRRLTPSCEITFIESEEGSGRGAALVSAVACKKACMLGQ

| Structure (SMILES) | Emax | EC50 |
| --- | --- | --- |
| CCOC(=O)CSc1cnc(NC(=O)c2nc(Sc3nncn3C)ccc2Sc2ccc(Cl)c(Cl)c2)s1 [Example 51, Ethyl ({2-[({3-[(3,4-dichlorophenyl)sulfanyl]-6-[(4-methyl-4H-1,2,4-triazol-3-yl)sulfanyl]pyridin-2-yl}carbonyl)amino]-1,3-thiazol-5-yl}sulfanyl)acetate] | 479% | 6.2 nM |
| Cn1cnnc1Sc1ccc(Sc2ccc(Cl)c(Cl)c2)c(C(=O)Nc2ncc(SCC(=O)O)s2)n1 [Example 52, ({2-[({3-[(3,4-Dichlorophenyl)sulfanyl]-6-[(4-methyl-4H-1,2,4-triazol-3-yl)sulfanyl]pyridin-2-yl}carbonyl)amino]-1,3-thiazol-5-yl}sulfanyl)acetic acid] | 431% | 16.6 nM |
| CCOC(=O)Cc1nc(NC(=O)c2nc(Sc3nncn3C)ccc2Sc2ccc(Cl)c(Cl)c2)sc1Cl [Example 53, Ethyl {5-chloro-2-[({3-[(3,4-dichlorophenyl)sulfanyl]-6-[(4-methyl-4H-1,2,4-triazol-3-yl)sulfanyl]pyridin-2-yl}carbonyl)amino]-1,3-thiazol-4-yl}acetate] | 426% | 7.6 nM |
| Cn1cnnc1Sc1ccc(Sc2ccc(Cl)c(Cl)c2)c(C(=O)Nc2nc(CC(=O)O)c(Cl)s2)n1 [Example 54, {5-Chloro-2-[({3-[(3,4-dichlorophenyl)sulfanyl]-6-[(4-methyl-4H-1,2,4-triazol-3-yl)sulfanyl]pyridin-2-yl}carbonyl)amino]-1,3-thiazol-4-yl}acetic acid] | 523% | 23.3 nM |
